Assay results as given in PubChem BioAssay AID1963830 (Molecular Pharmacology Branch, DTP, NCI, 2024).
“And” between values parts separate entries of the source, which are not always exact repeats. Identical values can stand only once.

Test system: 922993-354-T-J3-PDC complex spheroid viability
Assay: Anticancer human tumor 922993-354-T-J3-PDC patient-derived endometrial carcinoma cell line growth inhibition [POLQ]
Details: for viability, T/C: stronger effect = lower value
Procedure: Multicellular complex tumor spheroid response to Polymerase (POL) inhibitors (novobiocin, ART-558, RP6685) in combination with a variety of drugs and investigational agents in selected tumor cell lines
The POL inhibitors (novobiocin, ART-558, and RP6685) were evaluated both individually and in combination with standard of care and investigational anticancer small molecules within a complex spheroid model of solid tumors. . Complex spheroids include a stromal component modeled by human endothelial cells (HUVEC) and fibroblasts modeled by human mesenchymal stem cells (MSCs). The concentration ranges selected for each drug and investigational agent were based upon clinically achievable concentrations if the clinical Cmax of the agent was known.
Compounds. The drugs and investigational agents: novobiocin (NSC847541), ART-558 (NSC835418), RP-6685 (NSC848927), peposertib (NSC802822), ceralasertib (NSC780249), elimusertib (NSC800525), camonsertib (NSC841442), AZD-1390 (NSC803789), olaparib (NSC753686), talazoparib (NSC767125), rucaparib (NSC756644), sotorasib (NSC818433), MRTX-1133 (NSC836407), SN-38 (NSC673596), topotecan (NSC609699), epotoside (NSC141540), doxorubicin (NSC123127), gemcitabine (NSC613327), 5-fluorouracil (NSC19893), paclitaxel (NSC125973), vemurafenib (NSC761431), MSA-2 (NSC828583), SN-011 (NSC837082), adavosertib (NSC754352), prexasertib (NSC758257), carboplatin (NSC241240) and oxaliplatin (NSC266046), were obtained from the National Cancer Institute (NCI) Developmental Therapeutics Program Chemical Repository (21). The FDA-approved anticancer drug set is available from the Developmental Therapeutics Program at https://dtp.cancer.gov/organization/dscb/obtaining/. […] The stock solutions were prepared in dimethyl sulfoxide (DMSO, Sigma-Aldrich, St. Louis, MO, cat. D2650), except for the platinum compounds which were prepared in saline (Quality Biological, Gaithersburg, MD, cat. 114-055-101), at 800-fold the tested concentration and stored at -70 degrees C prior to their use. All drugs and investigational agents were tested over a range starting from a high concentration at or near the clinical Cmax and decreasing in half-log increments. If the clinical Cmax for an agent had not been determined, the highest concentration tested was 10 microM, except for SN-38, which was tested at a high concentration of 1 microM.
Cell Culture. All cells were maintained in an incubator at 37 degrees C and 5% CO2 with 95% humidity. The PDC lines were cultured according to standard operating procedures established by the NCI PDMR (https://pdmr.cancer.gov). Table 3 of the manuscript, lists the cell lines along with the number of the three cell types plated to form the mct-spheroids and media for tumor cell growth. After thawing, all PDC lines, except 997537-175-T-J1-PDC and 415267-285-R-J2-PDC, were cultured in Matrigel-coated flasks prepared with a working solution of 1X Ham's F-12 nutrient mix, without supplementation (Thermo Fisher Scientific, cat. 11765054), 100 U/mL penicillin-streptomycin (Thermo Fisher Scientific, cat. 15140122), and 2.5% Matrigel (Corning Inc., Corning, NY, cat. 354248) for the first three passages. The two PDC lines 997537-175-T-J1-PDC and 415267-285-R-J2-PDC were cultured on uncoated flasks. The 857933-349-R-J2-PDC line was cultured in 6C/Colon 1B media containing advanced DMEM/F-12 (Thermo Fisher Scientific, cat. 12634028), 10 mM HEPES (Thermo Fisher Scientific, cat. 15630080), 1X GlutaMAX supplement (Thermo Fisher Scientific, cat. 35050061), 0.1 mg/mL primocin (InvivoGen, San Diego, CA, cat. ant-pm-2), 10% defined fetal bovine serum, heat inactivated (HyClone Laboratories Inc., Logan, UT, cat. SH30070.03HI), 50% L-WRN conditioned media (ATCC, cat. CRL-3276), 1.25 mM N-Acetyl-L-cysteine (Sigma-Aldrich, cat. A9165), 10 mM nicotinamide (Sigma-Aldrich, cat. N0636), 1X B-27 supplement (Thermo Fisher Scientific, cat. 17504044), 1X N-2 supplement (Thermo Fisher Scientific, cat. […]
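Further: spheroids exposed to the agents for one week.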
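Wherever viability, T/C is given: 100% = DMSO vehicle control wells.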

CNCc1ccc(-c2[nH]c3cc(F)cc4c3c2CCNC4=O)cc1 + Nc1ccc(C#CCN(C(=O)Cc2ncc(C(F)(F)F)cc2C(F)(F)F)c2ccc(F)cc2)nn1
IC50 (curve of first compound, second compound 0.0316 µM): > 10 µM
IC50 (curve of first compound, second compound 0.1 µM): > 10 µM
IC50 (curve of first compound, second compound 0.316 µM): > 10 µM
IC50 (curve of first compound, second compound 1 µM): > 10 µM
IC50 (curve of first compound, second compound 3.16 µM): > 10 µM
IC50 (curve of first compound, second compound 10 µM): > 10 µM
viability, T/C (second compound 0.0316 µM, first compound 0.0316 µM): 101%
viability, T/C (second compound 0.0316 µM, first compound 0.1 µM): 98.2%
viability, T/C (second compound 0.0316 µM, first compound 0.316 µM): 98.2%
viability, T/C (second compound 0.0316 µM, first compound 1 µM): 97%
viability, T/C (second compound 0.0316 µM, first compound 3.16 µM): 96.1%
viability, T/C (second compound 0.0316 µM, first compound 10 µM): 90.5%
viability, T/C (second compound 0.1 µM, first compound 0.0316 µM): 103%
viability, T/C (second compound 0.1 µM, first compound 0.1 µM): 99%
viability, T/C (second compound 0.1 µM, first compound 0.316 µM): 99.9%
viability, T/C (second compound 0.1 µM, first compound 1 µM): 101%
viability, T/C (second compound 0.1 µM, first compound 3.16 µM): 97.3%
viability, T/C (second compound 0.1 µM, first compound 10 µM): 92.5%
viability, T/C (second compound 0.316 µM, first compound 0.0316 µM): 97.3%
viability, T/C (second compound 0.316 µM, first compound 0.1 µM): 99.2%
viability, T/C (second compound 0.316 µM, first compound 0.316 µM): 97%
viability, T/C (second compound 0.316 µM, first compound 1 µM): 96%
viability, T/C (second compound 0.316 µM, first compound 3.16 µM): 102%
viability, T/C (second compound 0.316 µM, first compound 10 µM): 91.8%
viability, T/C (second compound 1 µM, first compound 0.0316 µM): 104%
viability, T/C (second compound 1 µM, first compound 0.1 µM): 96.4%
viability, T/C (second compound 1 µM, first compound 0.316 µM): 94.7%
viability, T/C (second compound 1 µM, first compound 1 µM): 102%
viability, T/C (second compound 1 µM, first compound 3.16 µM): 97.3%
viability, T/C (second compound 1 µM, first compound 10 µM): 94.9%
viability, T/C (second compound 3.16 µM, first compound 0.0316 µM): 97.3%
viability, T/C (second compound 3.16 µM, first compound 0.1 µM): 100%
viability, T/C (second compound 3.16 µM, first compound 0.316 µM): 101%
viability, T/C (second compound 3.16 µM, first compound 1 µM): 93.9%
viability, T/C (second compound 3.16 µM, first compound 3.16 µM): 95.9%
viability, T/C (second compound 3.16 µM, first compound 10 µM): 89.6%
viability, T/C (second compound 10 µM, first compound 0.0316 µM): 95.5%
viability, T/C (second compound 10 µM, first compound 0.1 µM): 96.9%
viability, T/C (second compound 10 µM, first compound 0.316 µM): 91.9%
viability, T/C (second compound 10 µM, first compound 1 µM): 93%
viability, T/C (second compound 10 µM, first compound 3.16 µM): 89.6%
viability, T/C (second compound 10 µM, first compound 10 µM): 69.9%

COc1cc(C2c3cc4c(cc3C(OC3OC5COC(C)OC5C(O)C3O)C3COC(=O)C23)OCO4)cc(OC)c1O (stereo not given)
viability, T/C (compound 0.0316 µM): 90.2% and 98.8% and 103%
viability, T/C (compound 0.1 µM): 95.9% and 102% and 93.7%
viability, T/C (compound 0.316 µM): 85.3% and 104% and 92.5%
viability, T/C (compound 1 µM): 97.9% and 104% and 97.5%
viability, T/C (compound 3.16 µM): 84.4% and 99.5% and 83.6%
viability, T/C (compound 10 µM): 42.3% and 81.9% and 37%
IC50 (curve of compound): 8.15 µM and > 10 µM and 7.3 µM

CCc1cc2c(N3CCc4c(cc(Cn5ccnc5)cc4-c4cn(C)nc4C(F)(F)F)C3=O)cc(C)nc2c(OC)n1
viability, T/C (compound 0.0316 µM): 93.1% and 105% and 99.3%
viability, T/C (compound 0.1 µM): 106% and 104% and 101%
viability, T/C (compound 0.316 µM): 98% and 103% and 106%
viability, T/C (compound 1 µM): 108% and 107% and 106%
viability, T/C (compound 3.16 µM): 99.3% and 102% and 104%
viability, T/C (compound 10 µM): 71.7% and 94.3% and 102%
IC50 (curve of compound): > 10 µM

O=c1[nH]cc(F)c(=O)[nH]1
viability, T/C (compound 0.0316 µM): 92.3% and 104% and 112%
viability, T/C (compound 0.1 µM): 105% and 101% and 99.1%
viability, T/C (compound 0.316 µM): 95% and 101% and 95.6%
viability, T/C (compound 1 µM): 101% and 105% and 99.3%
viability, T/C (compound 3.16 µM): 30.5% and 79.5% and 27.9%
viability, T/C (compound 10 µM): 14.8% and 24.6% and 17.6%
IC50 (curve of compound): 2.27 µM and 5.89 µM and 2.21 µM

CC[C@@]1(O)C(=O)OCc2c1cc1n(c2=O)Cc2cc3c(CN(C)C)c(O)ccc3nc2-1
viability, T/C (compound 0.000316 µM): 92.2% and 105% and 98.3%
viability, T/C (compound 0.001 µM): 103% and 105% and 84%
viability, T/C (compound 0.00316 µM): 101% and 97.8% and 99.3%
viability, T/C (compound 0.01 µM): 98.3% and 98.7% and 106%
viability, T/C (compound 0.0316 µM): 86.9% and 98% and 91.8%
viability, T/C (compound 0.1 µM): 54.7% and 87.9% and 41.4%
IC50 (curve of compound): > 0.1 µM and 0.0827 µM
